One may read the IC50 as the concentration that gives 50% inhibition.

Where two headings read alike, the source gives them in different places.

One experiment concerns the target T1, human ROCKα/ROCKII mix (Homo sapiens, UniProt O75116).
T1 construct: purchased Upstate Biotechnology 14-451
Put plainly: Biochemical assay for ROCK (fluorescence polarization, ROCK IMAP Kit). The settings on record: Table 2, compounds of Formula XIII. A general note: Fluorescence polarisation rises when a labelled molecule tumbles more slowly, as on binding a larger partner.

A further experiment concerns the target T2, PKC epsilon (Homo sapiens, UniProt Q02156).
T2 construct: purchased Invitrogen P2282
T2 sequence (Q02156 1-737): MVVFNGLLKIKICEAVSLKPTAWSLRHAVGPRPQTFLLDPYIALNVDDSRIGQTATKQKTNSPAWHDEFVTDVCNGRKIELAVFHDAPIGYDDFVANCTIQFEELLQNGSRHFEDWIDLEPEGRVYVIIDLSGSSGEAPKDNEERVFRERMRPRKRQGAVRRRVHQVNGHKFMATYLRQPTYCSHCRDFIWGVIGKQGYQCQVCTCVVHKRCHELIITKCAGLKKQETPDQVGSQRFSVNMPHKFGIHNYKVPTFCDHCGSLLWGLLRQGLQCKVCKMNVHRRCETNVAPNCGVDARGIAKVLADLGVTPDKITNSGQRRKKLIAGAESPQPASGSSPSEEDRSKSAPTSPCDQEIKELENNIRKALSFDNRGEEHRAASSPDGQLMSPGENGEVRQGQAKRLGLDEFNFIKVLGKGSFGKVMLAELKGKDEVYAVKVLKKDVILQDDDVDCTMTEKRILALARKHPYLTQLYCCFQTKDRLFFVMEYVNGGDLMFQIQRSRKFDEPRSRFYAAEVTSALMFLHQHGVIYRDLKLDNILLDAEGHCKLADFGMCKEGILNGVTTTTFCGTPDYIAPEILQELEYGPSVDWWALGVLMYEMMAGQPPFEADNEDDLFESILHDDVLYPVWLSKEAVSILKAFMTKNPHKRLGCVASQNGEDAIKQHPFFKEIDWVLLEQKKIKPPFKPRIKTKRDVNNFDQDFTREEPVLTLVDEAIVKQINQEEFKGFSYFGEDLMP
Put plainly: Biochemical assay for PKC epsilon (fluorescence polarization, Protein Kinase C Assay Kit, Red). The settings on record: Table 2, compounds of Formula XIII. A digest of the protocol:
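PKC epsilon at 10 ng/ml final was preincubated 30 min at room temperature with compound in HEPES pH 7.4 with DTT and Triton X-100. ATP/protein substrate was then added in buffer with MgCl2 and CaCl2 for 80 min. The reaction was stopped with EDTA, phosphorylation was detected by fluorescence polarization with rhodamine tracer and anti-phosphoserine antibody, and IC50 values came from curve fits.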

T1 sequence (O75116 11-552 limits assumed): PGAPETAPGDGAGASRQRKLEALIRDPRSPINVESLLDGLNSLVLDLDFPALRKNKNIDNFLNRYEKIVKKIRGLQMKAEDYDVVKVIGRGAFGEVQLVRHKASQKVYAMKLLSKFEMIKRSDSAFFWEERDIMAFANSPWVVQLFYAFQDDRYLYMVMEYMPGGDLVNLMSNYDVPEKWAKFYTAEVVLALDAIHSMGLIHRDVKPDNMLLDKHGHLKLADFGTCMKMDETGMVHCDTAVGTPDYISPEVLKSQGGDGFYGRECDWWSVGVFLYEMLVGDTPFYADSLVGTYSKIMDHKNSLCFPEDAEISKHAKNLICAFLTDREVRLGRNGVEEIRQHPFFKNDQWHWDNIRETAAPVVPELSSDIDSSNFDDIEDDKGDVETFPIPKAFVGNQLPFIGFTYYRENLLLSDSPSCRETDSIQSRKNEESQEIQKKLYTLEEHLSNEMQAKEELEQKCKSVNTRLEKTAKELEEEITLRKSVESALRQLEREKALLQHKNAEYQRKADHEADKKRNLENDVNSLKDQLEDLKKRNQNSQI

With `NC(CNC(=O)c1ccc2cc[nH]c2c1)c1ccc(C(=O)Nc2ccncc2)cc1` (stereo not shown) [Compound 131, 1H-Indole-6-carboxylic acid {2-amino-2-[4-(pyridin-4-ylcarbamoyl)-phenyl]-ethyl}-amide], the IC50 against human ROCKα/ROCKII mix fell in the range of 0.5 to 5 µM; at PKC epsilon (read-out: IC50 μM PKCε) it was 5 to 50 µM.
Taken in the same sequence, the figures for `NC(CNC(=O)c1ccc2[nH]ccc2c1)c1ccc(C(=O)Nc2ccncc2)cc1` (stereo not shown) [Compound 132, 1H-Indole-5-carboxylic acid {2-amino-2-[4-(pyridin-4-ylcarbamoyl)-phenyl]-ethyl}-amide] were 0.05 to 0.5 µM and 0.5 to 5 µM.
On the same counts, the results for `COc1cccc2cc(C(=O)NCC(N)c3ccc(C(=O)Nc4ccncc4)cc3)oc12` (stereo not shown) [Compound 133, 7-Methoxy-benzofuran-2-carboxylic acid {2-amino-2-[4-(pyridin-4-ylcarbamoyl)-phenyl]-ethyl}-amide] are 0.05 to 0.5 µM and 5 to 50 µM.
On the same counts, the results for `NC(CNC(=O)c1cc2cc(Cl)ccc2o1)c1ccc(C(=O)Nc2ccncc2)cc1` (stereo not shown) [Compound 134, 5-Chloro-benzofuran-2-carboxylic acid {2-amino-2-[4-(pyridin-4-ylcarbamoyl)-phenyl]-ethyl}-amide] are 0.5 to 5 µM and 5 to 50 µM.
Consider `NC(CNC(=O)Cc1ccc2ccccc2c1)c1ccc(C(=O)Nc2ccncc2)cc1` (stereo not shown) [Compound 135, 4-[1-Amino-2-(2-naphtalen-2-yl-acetylamino)-ethyl]-N-pyridin-4-yl-bennzamide], for which the half-maximal inhibitory concentration (IC50) fell in the range of 0.5 to 5 µM against human ROCKα/ROCKII mix and 5 to 50 µM at PKC epsilon (read-out: IC50 μM PKCε).
Taken in the same sequence, the figures for `NC(CNC(=O)C(c1ccccc1)C1CCCC1)c1ccc(C(=O)Nc2ccncc2)cc1` (stereo not shown) [Compound 136, 4-[1-Amino-2-(2-cyclopentyl-2-phenyl-acetylamino)-ethyl]-N-pyridin-4-yl-bennzamide] were 0.5 to 5 µM and 5 to 50 µM.
Taken in the same sequence, the figures for `NC(CNC(=O)C1(c2ccccc2)CC1)c1ccc(C(=O)Nc2ccncc2)cc1` (stereo not shown) [Compound 137, 4-{1-Amino-2-[(1-phenyl-cyclopropanecarbonyl)-amino]-ethyl}-N-pyridin-4-yl-benzamide] were 0.5 to 5 µM and 0.05 to 0.5 µM.
Taken in the same sequence, the figures for `COc1ccccc1CC(=O)NCC(N)c1ccc(C(=O)Nc2ccncc2)cc1` (stereo not shown) [Compound 138, 4-{1-amino-2-[2-(2-methoxy-phenyl)-acetylamino]-ethyl}-N-pyridin-4-yl-benzamide] were 0.5 to 5 µM and 5 to 50 µM.
In the case of `COc1cccc(CC(=O)NCC(N)c2ccc(C(=O)Nc3ccncc3)cc2)c1` (stereo not shown) [Compound 139, 4-{1-amino-2-[2-(3-methoxy-phenyl)-acetylamino]-ethyl}-N-pyridin-4-yl-benzamide], the results for the 50% inhibitory concentration (IC50) at human ROCKα/ROCKII mix and on PKC epsilon (read-out: IC50 μM PKCε) were 0.05 to 0.5 µM and 0.5 to 5 µM, respectively.
On the same counts, the results for `COc1ccc(CC(=O)NCC(N)c2ccc(C(=O)Nc3ccncc3)cc2)cc1` (stereo not shown) [Compound 140, 4-{1-amino-2-[2-(4-methoxy-phenyl)-acetylamino]-ethyl}-N-pyridin-4-yl-benzamide] are 0.05 to 0.5 µM and 5 to 50 µM.
On the same counts, the results for `NC(CNC(=O)Cc1ccc2c(c1)OCO2)c1ccc(C(=O)Nc2ccncc2)cc1` (stereo not shown) [Compound 141, 4-{1-amino-2-(2-benzo[1,3]dioxol-5-yl-acetylamino)-ethyl]-N-pyridin-4-yl-benzamide] are 0.05 to 0.5 µM and 5 to 50 µM.
On the same counts, the results for `Cc1ccccc1CC(=O)NCC(N)c1ccc(C(=O)Nc2ccncc2)cc1` (stereo not shown) [Compound 142, 4-{1-Amino-2-[2-(2-methyl-phenyl)-acetylamino]-ethyl}-N-pyridin-4-yl-benzamide] are 0.05 to 0.5 µM and 0.5 to 5 µM.
With `Cc1cccc(CC(=O)NCC(N)c2ccc(C(=O)Nc3ccncc3)cc2)c1` (stereo not shown) [Compound 143, 4-{1-Amino-2-[2-(3-methyl-phenyl)-acetylamino]-ethyl}-N-pyridin-4-yl-benzamide], the values for the IC50 on human ROCKα/ROCKII mix and at PKC epsilon (read-out: IC50 μM PKCε) were 0.05 to 0.5 µM and 0.5 to 5 µM, respectively.
Taken in the same sequence, the figures for `Cc1ccc(C)c(CC(=O)NCC(N)c2ccc(C(=O)Nc3ccncc3)cc2)c1` (stereo not shown) [Compound 144, 4-{1-Amino-2-[2-(2,5-dimethyl-phenyl)-aceylamino]-ethyl}-N-pyridin-4-yl-benzamide] were 0.5 to 5 µM and 0.5 to 5 µM.
Consider `Cc1ccc(CC(=O)NCC(N)c2ccc(C(=O)Nc3ccncc3)cc2)cc1` (stereo not shown) [Compound 145, 4-{1-Amino-2-[2-(4-methyl-phenyl)-acetylamino]-ethyl}-N-pyridin-4-yl-benzamide], for which the half-maximal inhibitory concentration (IC50) at human ROCKα/ROCKII mix was 0.05 to 0.5 µM; on PKC epsilon (read-out: IC50 μM PKCε) it was 0.5 to 5 µM.
Taken in the same sequence, the figures for `NC(CNC(=O)Cc1ccc(-c2ccccc2)cc1)c1ccc(C(=O)Nc2ccncc2)cc1` (stereo not shown) [Compound 146, 4-[1-Amino-2-(2-biphenyl-4-yl-acetylamino)-ethyl]-N-pyridin-4-yl-benzamide] were 0.5 to 5 µM and 5 to 50 µM.
On the same counts, the results for `NC(CNC(=O)Cc1cccc(Cl)c1)c1ccc(C(=O)Nc2ccncc2)cc1` (stereo not shown) [Compound 147, 4-{1-Amino-2-[2-(3-chloro-phenyl)-acetylamino]-ethyl}-N-pyridin-4-yl-benzamide] are 0.05 to 0.5 µM and 0.5 to 5 µM.
As to `NC(CNC(=O)Cc1ccc(F)cc1)c1ccc(C(=O)Nc2ccncc2)cc1` (stereo not shown) [Compound 148, 4-{1-Amino-2-[2-(4-fluoro-phenyl)-acetylamino]-ethyl}-N-pyridin-4-yl-benzamide], the IC50 against human ROCKα/ROCKII mix and at PKC epsilon (read-out: IC50 μM PKCε) was 0.05 to 0.5 µM each time.
Regarding `NC(CNC(=O)Cc1c(F)cccc1F)c1ccc(C(=O)Nc2ccncc2)cc1` (stereo not shown) [Compound 149, 4-{1-Amino-2-[2-(2,6-difluororo-phenyl)-acetylamino]-ethyl}-N-pyridin-4-yl-benzamide], the 50% inhibitory concentration (IC50) on human ROCKα/ROCKII mix and against PKC epsilon (IC50 μM PKCε) was 0.5 to 5 µM throughout.
As to `NC(CNC(=O)Cc1ccccn1)c1ccc(C(=O)Nc2ccncc2)cc1` (stereo not shown) [Compound 150, 4-[1-Amino-2-(2-pyridin-2-yl-acetylamino)-ethyl]-N-pyridin-4-yl-benzamide], the IC50 fell in the range of 0.5 to 5 µM at human ROCKα/ROCKII mix and 5 to 50 µM at PKC epsilon (read-out: IC50 μM PKCε).
On to `NC(CNC(=O)Cc1ccncc1)c1ccc(C(=O)Nc2ccncc2)cc1` (stereo not shown) [Compound 151, 4-[1-Amino-2-(2-pyridin-4-yl-acetylamino)-ethyl]-N-pyridin-4-yl-benzamide], for which the figures for the concentration for half-maximal inhibition (IC50) against human ROCKα/ROCKII mix and on PKC epsilon (read-out: IC50 μM PKCε) were 0.5 to 5 µM and 5 to 50 µM, respectively.
Taken in the same sequence, the figures for `NC(CNC(=O)Cc1c[nH]c2ccccc12)c1ccc(C(=O)Nc2ccncc2)cc1` (stereo not shown) [Compound 152, 4-[1-Amino-2-(2-1H-indol-3-yl-acetylamino)-ethyl]-N-pyridin-4-yl-benzamide] were 0.05 to 0.5 µM and 0.5 to 5 µM.
On the same counts, the results for `NC(CNC(=O)Cc1cccs1)c1ccc(C(=O)Nc2ccncc2)cc1` (stereo not shown) [Compound 153, 4-[1-amino-2-(2-thiophen-2-yl-acetylamino)-ethyl]-N-pyridin-4-yl-benzamide] are 0.05 to 0.5 µM and 0.5 to 5 µM.
On the same counts, the results for `NC(CNC(=O)Cc1csc(-c2ccccc2)n1)c1ccc(C(=O)Nc2ccncc2)cc1` (stereo not shown) [Compound 154, 4-{1-Amino-2-[2-(2-phenyl-thiazol-4-yl)-acetylamino]-ethyl}-N-pyridin-4-yl-benzamide] are 0.05 to 0.5 µM and 5 to 50 µM.
For `NC(CNC(=O)Cc1csc(Nc2ccccc2)n1)c1ccc(C(=O)Nc2ccncc2)cc1` (stereo not shown) [Compound 155, 4-{1-Amino-2-[2-(2-phenylamino-thiazol-4-yl)-acetylamino]-ethyl}-N-pyridin-4-yl-benzamide], the IC50 against human ROCKα/ROCKII mix and at PKC epsilon (read-out: IC50 μM PKCε) was 0.5 to 5 µM each time.
Take `NC(CNC(=O)COc1ccccc1)c1ccc(C(=O)Nc2ccncc2)cc1` (stereo not shown) [Compound 156, 4-[1-Amino-2-(2-phenoxy-acetylamino)-ethyl]-N-pyridin-4-yl-benzamide]: the half-maximal inhibitory concentration (IC50) on human ROCKα/ROCKII mix and on PKC epsilon (read-out: IC50 μM PKCε) was 0.05 to 0.5 µM each time.
With `NC(CNC(=O)COc1ccc(F)cc1)c1ccc(C(=O)Nc2ccncc2)cc1` (stereo not shown) [Compound 157, 4-{1-Amino-2-[2-(4-fluoro-phenoxy)-acetylamino]-ethyl}-N-pyridin-4-yl-benzamide], the 50% inhibitory concentration (IC50) against human ROCKα/ROCKII mix and on PKC epsilon (read-out: IC50 μM PKCε) was 0.05 to 0.5 µM throughout.
Take `CCC(Oc1ccccc1)C(=O)NCC(N)c1ccc(C(=O)Nc2ccncc2)cc1` (stereo not shown) [Compound 158, 4-[1-Amino-2-(2-phenoxy-butyrylamino)-ethyl]-N-pyridin-4-yl-benzamide]: the half-inhibitory concentration (IC50) against human ROCKα/ROCKII mix is 0.05 to 0.5 µM; at PKC epsilon (read-out: IC50 μM PKCε), 0.5 to 5 µM.
As to `Cc1cc(Cl)ccc1OC(C)C(=O)NCC(N)c1ccc(C(=O)Nc2ccncc2)cc1` (stereo not shown) [Compound 159, 4-{1-Amino-2-[2-(4-chloro-2-methyl-phenoxy)-propionylamino]-ethyl}-N-pyridin-4-yl-benzamide], the IC50 against human ROCKα/ROCKII mix lay within 0.05 to 0.5 µM; on PKC epsilon (read-out: IC50 μM PKCε), 0.5 to 5 µM.

The record behind these values is US20100168102A9, “Amide Derivatives as Kinase Inhibitors” (Devgen NV, priority 2005, published 2010).
